The test system of test [1] is NCI-H1975 cells. Description: Cell viability IC50 (MTT), Gefitinib-resistant NCI-H1975 cells.
Experimental: (§15) 1% sodium pyruvate was additionally added when culturing NCI-H1975 cells. All the cells were cultured in a constant temperature incubator containing 5% CO2 at 37° C.
(§16) (1) The cells were cultured to the logarithmic growth phase. […] After centrifugation at room temperature, the supernatant was discarded, and the cell precipitate was resuspended with fresh complete medium. After counting, the cells were placed at room temperature for later use.
(§17) (2) The cells were inoculated into a 96-well plate at a density of 4,000 cells/well with a volume of 100 μl/well. The wells at the outermost circle of the plate were not inoculated with cells, and instead, added with sterile water to reduce evaporation of the culture medium.
(§18) (3) After overnight culture of the cells, the medium was discarded, and a fresh medium containing different concentrations of compounds was added at 200 μl/well. The dilution method of the compound was as follows: first the compound with the highest concentration of 10 μM was prepared, and then the compound was diluted for 3 times in sequence. […] At the same time, a blank control group was set up, in which only an equal volume of culture medium was added without adding cells. Six replicate wells were set up for each group. The cells were placed in the incubator for further culture.
(§19) (4) After 72 hours, 20 μl of MTT solution (5 mg/ml) sterilized by filtration through a 0.22 m filter membrane was added to each well, and the cells were cultured in an incubator at 37° C. for another 4 hours.
(§20) (6) IC50 of the compounds for different cells was calculated based on the light absorption value of each group. Specifically, the absorbance value under treatment with different concentrations of compounds was first subtracted from the absorbance value of the blank well, and then the absorbance value of the 0 μM group was taken as 100% to calculate the cell survival rate after treatment with different concentrations of compounds. That is, survival rate=((ODexperimental well−ODblank control)/(ODnegative control−ODblank control))×100%. IC50 values were calculated based on the survival rate and concentration of the compound.
Test [2] relates to NCI-H1650 cells. Description: Cell viability IC50 (MTT), Gefitinib- and Osimertinib-resistant NCI-H1650 cells. The following applies: Homo sapiens, NCI-H1650, 72 h, read-out: cell viability IC50.
Experimental: as §15, §16, §17, §18, §19, §20
Test [3] concerns PE043 primary cells. Description: Cell viability IC50 (CCK-8), primary cells PE043 from lung adenocarcinoma pleural effusion resistant to EGFR-TKI. The following applies: read-out: cell viability IC50.
Test [4] relates to PE052 primary cells. Description: Cell viability IC50 (CCK-8), primary cells PE052 from small cell lung cancer pleural effusion. The test is classed as cell-based. As to conditions: PE052, CCK-8. How it is done: (§1) (1) The pleural effusion was poured into a 15 mL or 50 mL of sterilized centrifuge tube for centrifugation. Centrifugation conditions: 800 to 1000 rpm, 5 min.
(§2) (2) The precipitate was resuspended and washed for 2 to 3 times with PBS.
(§3) (3) The cell precipitate was resuspended with complete culture medium (α-MEM medium containing 10% fetal bovine serum and 2% penicillin-streptomycin), and the flocculent matter in the pleural effusion was removed using a sterilized cell sieve.
(§4) (4) The red blood cells in the pleural effusion were removed with lymphocyte separation fluid, and the tumor cells and lymphocyte components were collected. The number of tumor cells was observed under a microscope, and the cells were inoculated.
(§5) (5) After 24 hours, the supernatant was discarded, and fresh culture medium was added for further culture.
(§6) (6) The cell growth status was observed, and it was determined based on the cell status whether the medium was required to be continuously changed to remove blood cells. When the cells grew to a density of 80% to 90%, the cells were preserved.
(§7) (1) Primary cells from lung cancer pleural effusion within 5 generations were cultured to the logarithmic growth phase. […] After centrifugation at room temperature, the supernatant was discarded, and the cell precipitate was resuspended with fresh complete culture medium. After counting, the cells were placed at room temperature for later use. The cells were inoculated into a 384-well plate at a density of 2000 cells/well with a volume of 40 μl/well. The wells at the outermost circle of the plate were not inoculated with cells, and instead, added with sterile water to reduce evaporation of the culture medium.
(§8) (2) After overnight culture of the cells, the medium was discarded, and a fresh medium containing different concentrations of compounds was added at 200 μl/well. The dilution method of the compound was as follows: first the compound with the highest concentration of 10 μM was prepared, and then the compound was diluted for 3 times in sequence. […] At the same time, a blank control group was set up, in which only an equal volume of culture medium was added without adding cells. Five replicate wells were set up for each group. The cells were placed in the incubator for further culture.
(§9) (3) After 72 hours, 8 μl of CCK-8 solution, which was double-diluted with 10 mM PBS, was added to each well, and the cells were shaken and placed in an incubator at 37° C. for further culture for 2 hours.
(§10) (4) The light absorbance value at 450 nm was read using a microplate reader, and the IC50 was calculated according to the absorbance value. The calculation method was the same as above.
(§11) (1) Sample information: PE039, PE052, and PE062 were all primary cell samples from pleural effusion of patients with small cell lung cancer, and LT015 was a primary cell sample from bronchoscopic biopsy of a patient with small cell lung cancer.
(§12) (2) CCK-8 detection was used to detect the IC50 values of different medicaments (compounds).

In test [5] the test system is PE062 primary cells. Kind of test: Cell viability IC50 (CCK-8), primary cells PE062 from small cell lung cancer pleural effusion. The test is classed as cell-based. As to conditions: PE062, CCK-8. As to the method:
as §1, §2, §3, §4, §5, §6, §7, §8, §9, §10, §11, §12

Test [6] deals with LT015 primary cells. Kind of test: Cell viability IC50 (CCK-8), primary cells LT015 from small cell lung cancer bronchoscopic biopsy. The test is classed as cell-based. As to conditions: LT015, CCK-8. As to the method:
(1) The tissue blocks obtained from the tumor patients were transferred from the preservation solution to the pre-cooled HBSS buffer containing antibiotics, and the tissue blocks were washed for three times with the pre-cooled HBSS buffer.
(2) Tissue was sheared on ice with sterile surgical instruments until no obvious tissue blocks are visible to the naked eye, the tissue fluid was collected into a 15 ml centrifuge tube, and this process takes about 5 to 10 minutes.
(3) Digestive enzymes (collagenase I, collagenase IV and neutral protease being mixed in a ratio of 1:1:1, a concentration of stock solution was 10 mg/ml, diluted with PBS buffer or HBSS buffer, and the use concentration was 1 mg/ml) were added to the centrifuge tube, and after mixing well by pipetting, the centrifuge tube was placed in a 37° C. constant temperature incubator for 1 to 2 hours.
(4) High-glucose medium was added to the centrifuge tube to stop digestion. After mixing well, the cell precipitate was collected by centrifugation, and resuspended with MBM medium (Advanced DMEM-F12+20 ng/ml bFGF+50 ng/ml EGF+1% ITS-X+2% B27+10 μMY-27632+1% PS). The cell suspension was placed in a Matrigel-coated 24-well plate and cultured for 5 to 7 days. When the cell density in the well plate reaches 80-90%, the cells were sub-cultured into a 6 cm cell culture dish, and when they grew to a density of 80% to 90%, the cells were cryopreserved for preservation.
(1) Primary cells from lung cancer pleural effusion within 5 generations were cultured to the logarithmic growth phase. When the confluence reached about 90%, the cells were digested with 0.25% trypsin, and complete culture medium was added to collect the cells. After centrifugation at room temperature, the supernatant was discarded, and the cell precipitate was resuspended with fresh complete culture medium. After counting, the cells were placed at room temperature for later use. The cells were inoculated into a 384-well plate at a density of 2000 cells/well with a volume of 40 μl/well. The wells at the outermost circle of the plate were not inoculated with cells, and instead, added with sterile water to reduce evaporation of the culture medium.
as §8, §9, §10, §11, §12

Test [7] has as its system DMS114 cells. Kind of test: Cell viability IC50 (CCK-8), small cell lung cancer cell line DMS114. The test is classed as cell-based. The following applies: Homo sapiens, DMS-114; DMS114, CCK-8. As to the method:
(§13) Small cell lung cancer cell lines DMS114, NCI-H1688, NCI-H82, NCI-H146, and NCI-H446 cells were cultured in RPMI-1640 medium containing 10% fetal bovine serum and 1% penicillin-streptomycin. All the cells were cultured in a constant temperature incubator containing 5% CO2 at 37° C.
(§14) Small cell lung cancer is a highly heterogeneous malignant tumor, and its clinical treatment is mainly based on traditional chemotherapy (mainly platinum medicaments and etoposide). In order to study the anti-tumor activity of the compounds of the present disclosure in small cell lung cancer, the CCK-8 method was used to investigate the cell viability IC50 of compound 8 for five small cell lung cancer cell lines.

The test system of test [8] is NCI-H146 cells. Description: Cell viability IC50 (CCK-8), small cell lung cancer cell line H146. The test is classed as cell-based. The following applies: Homo sapiens, NCI-H146; H146, CCK-8. As to the method:
as §13, §14

Test [9] deals with NCI-H1688 cells. Description: Cell viability IC50 (CCK-8), small cell lung cancer cell line H1688. The test is classed as cell-based. The following applies: NCI-H1688; H1688, CCK-8. How it is done:
as §13, §14

Test [10] concerns NCI-H446 cells. Kind of test: Cell viability IC50 (CCK-8), small cell lung cancer cell line H446. The test is classed as cell-based. The following applies: Homo sapiens, NCI-H446; H446, CCK-8. How it is done: as §13, §14
For test [11], the system named is NCI-H82 cells. Kind of test: Cell viability IC50 (CCK-8), small cell lung cancer cell line H82. As to conditions: Homo sapiens, NCI-H82; H82, CCK-8. The test is classed as cell-based. As to the method: as §13, §14
Test [12] concerns PE039 primary cells. Description: Cell viability IC50 (CCK-8), primary cells PE039 from small cell lung cancer pleural effusion. The test is classed as cell-based. The following applies: PE039, CCK-8. How it is done:
as §1, §2, §3, §4, §5, §6, §7, §8, §9
(4) The light absorbance value at 450 nm was read using a microplate reader, and the IC50 was calculated according to the absorbance value. The calculation method was the same as above. […]

Where [13] appears, read: Homo sapiens, NCI-H1975, 72 h, read-out: cell viability IC50.

Structures can show the parent of a compound that is named as a salt. Where two headings read alike, the source gives them in different places.

Turning to `CN(C)CCN1Cc2ccc(Nc3ncc(Cl)c(Nc4ccccc4S(=O)(=O)N(C)C)n3)cc2C1` [Compound 3, 2-((5-chloro-2-((2-(2-(dimethylamino)ethyl)isodihydroindol-5-yl)amino)pyrimidin-4-yl)amino)-N,N-dimethylbenzenesulfonamide], the IC50 in [1] (setting [13]) worked out at 0.0283 µM; in [2] it was 0.0378 µM.

For the compound `CN1C2CCC1CN(Cc1ccc(Nc3ncc(Cl)c(Nc4ccccc4S(=O)(=O)N(C)C)n3)cc1)C2` [Compound 9, 2-((5-chloro-2-((4-((8-methyl-3,8-diazabicyclo[3.2.1]octan-3-yl)methyl)phenyl)amino)pyrimidin-4-yl)amino)-N,N-dimethylbenzenesulfonamide], the IC50 was found to be 0.0253 µM in [1] (setting [13]) and 0.17 µM in [2].

Turning to `CNCCN1CCc2cc(Nc3ncc(Cl)c(Nc4ccccc4S(=O)(=O)N(C)C)n3)ccc2C1` [Compound 12, 2-((5-chloro-2-((2-(2-(methylamino)ethyl)-1,2,3,4-tetrahydroisoquinolin-6-yl)amino)pyrimidin-4-yl)amino)-N,N-dimethylbenzenesulfonamide], the figures for the 50% inhibitory concentration (IC50) in test [1] (setting [13]) and in [2] were 0.0186 µM and 0.0752 µM, respectively.

Consider `CN1CCN(Cc2ccc(Nc3ncc(Cl)c(Nc4ccncc4S(=O)(=O)N(C)C)n3)cc2)CC1` [Compound 6, 4-((5-chloro-2-((4-((4-methylpiperazin-1-yl)methyl)phenyl)amino)pyrimidin-4-yl)amino)-N,N-dimethylpyridine-3-sulfonamide], for which the IC50 in [1] (setting [13]) was 0.0477 µM; in test [2] it was 0.25 µM.

Take `CN(C)CCN1CCc2cc(Nc3ncc(Cl)c(Nc4ccccc4S(=O)(=O)N(C)C)n3)ccc2C1` [Compound 13, 2-((5-chloro-2-((2-(2-(dimethylamino)ethyl)-1,2,3,4-tetrahydroisoquinolin-6-yl)amino)pyrimidin-4-yl)amino)-N,N-dimethylbenzenesulfonamide formate]: the results for the IC50 in test [1] (setting [13]) and in test [2] were 0.0198 µM and 0.0673 µM, respectively.

For `Nc1ccn([C@@H]2O[C@H](CO)[C@@H](O)C2(F)F)c(=O)n1` [Gemcitabine], the IC50 in test [3] is over 834 µM.

On to `COCCN1CCc2cc(Nc3ncc(Cl)c(Nc4ccccc4S(=O)(=O)N(C)C)n3)ccc2C1` [Compound 11, 2-((5-chloro-2-((2-(2-methoxyethyl)-1,2,3,4-tetrahydroisoquinolin-6-yl)amino)pyrimidin-4-yl)amino)-N,N-dimethylbenzenesulfonamide formate], for which the IC50 in test [1] (setting [13]) is 0.0291 µM; in test [2] it was 0.0325 µM.

Turning to `CN1CCN(Cc2ccc(Nc3ncc(Cl)c(Nc4ccccc4S(=O)(=O)N(C)C)n3)cn2)CC1` [Compound 2, 2-((5-chloro-2-((6-((4-methylpiperazin-1-yl)methyl)pyridin-3-yl)amino)pyrimidin-4-yl)amino)-N,N-dimethylbenzenesulfonamide], the IC50 in [1] (setting [13]) came out at 0.0864 µM; in test [2] it was 0.466 µM.

On to `COc1cc2c(Oc3ccc4[nH]c(C)cc4c3F)ccnc2cc1OCC1(N)CC1` [Anlotinib], for which the IC50 worked out at 9.44 µM in [4], 1.5 µM in [5] and 2.07 µM in test [6].

`C[C@@H](Oc1cc(-c2cnn(C3CCNCC3)c2)cnc1N)c1c(Cl)ccc(F)c1Cl` [Crizotinib] displayed an IC50 in test [5] of 0.9 µM.

For the compound `CNS(=O)(=O)c1ccccc1Nc1nc(Nc2ccc(CN3C4CCC3CN(C)C4)cc2)ncc1Cl` [Compound 15, 2-((5-chloro-2-((4-((3-methyl-3,8-diazabicyclo[3.2.1]octan-8-yl)methyl)phenyl)amino)pyrimidin-4-yl)amino)-N-methylbenzenesulfonamide], the concentration for half-maximal inhibition (IC50) in [7] came to 0.00853 µM; in test [8], 0.0162 µM; in test [9], 0.00916 µM; in [10], 0.00654 µM.

Take `COc1cc([C@@H]2c3cc4c(cc3[C@@H](O[C@@H]3O[C@@H]5CO[C@@H](C)O[C@H]5[C@H](O)[C@H]3O)[C@H]3COC(=O)[C@H]23)OCO4)cc(OC)c1O` [Etoposide]: the IC50 in test [7] stood at 0.917 µM; in [8], 0.434 µM; in test [11], 0.545 µM; in test [9], 0.739 µM; in test [10], 1.06 µM; in test [5], 0.77 µM. Also, the IC50 in [6] is 48.2 µM.

Regarding `C=CC(=O)Nc1cc(Nc2nccc(-c3cn(C)c4ccccc34)n2)c(OC)cc1N(C)CCN(C)C` [Osimertinib], the IC50 turned out to be 3.99 µM in test [12]; 0.568 µM in test [4]; 2.74 µM in test [5]; […] in test [1] (Homo sapiens, NCI-H1975, 72 h, read-out: cell viability IC50, NCI-H1975 cells, 72 hours, MTT); […] in test [1] (read-out: cell viability IC50, NCI-H1975 cells, 72 hours, MTT); 2.75 µM in test [2]. Besides, in test [3], the IC50 was 3.37 µM.

As for `C[C@@H]1CN(Cc2ccc(Nc3ncc(Cl)c(Nc4ccccc4S(=O)(=O)N(C)C)n3)cc2)C[C@H](C)N1C` [Compound 10, 2-((5-chloro-2-((4-(((3R,5S)-3,4,5-trimethylpiperazin-1-yl)methyl)phenyl)amino)pyrimidin-4-yl)amino)-N,N-dimethylbenzenesulfonamide], the IC50 in test [1] (setting [13]) turned out to be 0.0215 µM; in [2] it was 0.136 µM.

For the compound `CN(C)C1CCN(Cc2ccc(Nc3ncc(Cl)c(Nc4ccccc4S(=O)(=O)N(C)C)n3)cc2)C1` (centres unmarked) [Compound 4, 2-((5-chloro-2-((4-((3-(dimethylamino)pyrrolidin-1-yl)methyl)phenyl)amino)pyrimidin-4-yl)amino)-N,N-dimethylbenzenesulfonamide], the IC50 amounted to 0.0877 µM in test [1] (setting [13]) and 0.163 µM in test [2].

As usually defined, the IC50 is the concentration that gives 50% inhibition.
